Patent US12686690B2, “Macrocyclic urea orexin receptor agonists” (Merck Sharp & Dohme LLC, priority 2020, dated 2026)

Target: T1, hOX2R (Homo sapiens, UniProt O43614)
T1 construct: expressed in transfected cells; host or cells: CHO cells (G418 selection)
T1 sequence (O43614 1-444): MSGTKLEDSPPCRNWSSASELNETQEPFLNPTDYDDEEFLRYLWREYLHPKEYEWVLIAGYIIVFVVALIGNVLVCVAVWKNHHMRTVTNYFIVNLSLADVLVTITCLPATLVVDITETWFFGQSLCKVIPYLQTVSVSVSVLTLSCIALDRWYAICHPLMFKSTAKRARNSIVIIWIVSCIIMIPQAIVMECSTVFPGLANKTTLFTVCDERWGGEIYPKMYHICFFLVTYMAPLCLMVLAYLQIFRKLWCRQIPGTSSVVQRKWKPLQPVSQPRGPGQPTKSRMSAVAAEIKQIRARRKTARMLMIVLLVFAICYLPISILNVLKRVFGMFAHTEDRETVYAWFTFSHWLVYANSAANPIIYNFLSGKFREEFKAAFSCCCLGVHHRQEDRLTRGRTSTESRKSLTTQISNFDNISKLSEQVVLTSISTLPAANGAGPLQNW
Assay: hOX2R IPone assay (orexin receptor agonism)
Type: cell-based
Settings: IPone readout; for hOX2R_Ipone max %act: maximal activation; for EC50: orexin receptor agonist, read-out: hOX2R_IPone EC50

hOX2R_Ipone max %act [%]	EC50 [nM]	Structure (SMILES)
99.5	4.9	CCC1CCCCCOc2nc(cn3ccnc23)-c2cc(ncc2OC)[C@@H](C)N(CC)C(=O)N1 (single isomer, unassigned) [Example 52B]
101.5	55.7	CCN1C(=O)NC(CC(C)C)CCCCCOc2nc(cn3ccnc23)-c2cc(ncc2OC)[C@H]1C (single isomer, unassigned) [Example 53A]
102.3	0.9	CCN1C(=O)NC(CC(C)C)CCCCCOc2nc(cn3ccnc23)-c2cc(ncc2OC)[C@H]1C (single isomer, unassigned) [Example 53B]
102	143	CCCC1CCCCCOc2nc(cn3ccnc23)-c2cc(ncc2OC)[C@@H](C)N(CC)C(=O)N1 (single isomer, unassigned) [Example 54A]
100.7	1	CCCC1CCCCCOc2nc(cn3ccnc23)-c2cc(ncc2OC)[C@@H](C)N(CC)C(=O)N1 (single isomer, unassigned) [Example 54B]
99.2	78.9	CCN1C(=O)NC(CC2CC2)CCCCCOc2nc(cn3ccnc23)-c2cc(ncc2OC)[C@H]1C (single isomer, unassigned) [Example 55A]
101.2	0.6	CCN1C(=O)NC(CC2CC2)CCCCCOc2nc(cn3ccnc23)-c2cc(ncc2OC)[C@H]1C (single isomer, unassigned) [Example 55B]
101.7	32	CCN1C(=O)NC(CCOC)CCCCCOc2nc(cn3ccnc23)-c2cc(ncc2OC)[C@H]1C (single isomer, unassigned) [Example 56A]
101	1	CCN1C(=O)NC(CCOC)CCCCCOc2nc(cn3ccnc23)-c2cc(ncc2OC)[C@H]1C (single isomer, unassigned) [Example 56B]
100.7	119	CCN1C(=O)NC(C2CC2)CCCCCOc2nc(cn3ccnc23)-c2cc(ncc2OC)[C@H]1C (single isomer, unassigned) [Example 57A]
101.6	1.2	CCN1C(=O)NC(C2CC2)CCCCCOc2nc(cn3ccnc23)-c2cc(ncc2OC)[C@H]1C (single isomer, unassigned) [Example 57B]
100.8	48.9	CCN1C(=O)NC(COC)CCCCCOc2nc(cn3ccnc23)-c2cc(ncc2OC)[C@H]1C (single isomer, unassigned) [Example 58A]
101.1	0.9	CCN1C(=O)NC(COC)CCCCCOc2nc(cn3ccnc23)-c2cc(ncc2OC)[C@H]1C (single isomer, unassigned) [Example 58B]
101.6	4.1	CCN1C(=O)NC(CC2CC2(F)F)CCCCCOc2nc(cn3ccnc23)-c2cc(ncc2OC)[C@H]1C (single isomer, unassigned) [Example 59A]
100.1	3.1	CCN1C(=O)NC(CC2CC2(F)F)CCCCCOc2nc(cn3ccnc23)-c2cc(ncc2OC)[C@H]1C (single isomer, unassigned) [Example 59B]
99.3	0.5	CCN1C(=O)NC(CC2CC2(F)F)CCCCCOc2nc(cn3ccnc23)-c2cc(ncc2OC)[C@H]1C (single isomer, unassigned) [Example 59C]
100.9	0.9	CCN1C(=O)NC(CC2CC2(F)F)CCCCCOc2nc(cn3ccnc23)-c2cc(ncc2OC)[C@H]1C (single isomer, unassigned) [Example 59D]
100.4	52.1	CCN1C(=O)NC(CCCOC)CCCCCOc2nc(cn3ccnc23)-c2cc(ncc2OC)[C@H]1C (single isomer, unassigned) [Example 60A]
100.9	2.2	CCN1C(=O)NC(CCCOC)CCCCCOc2nc(cn3ccnc23)-c2cc(ncc2OC)[C@H]1C (single isomer, unassigned) [Example 60B]
100.3	34.6	CCN1C(=O)NC(CC2CCC2)CCCCCOc2nc(cn3ccnc23)-c2cc(ncc2OC)[C@H]1C (single isomer, unassigned) [Example 61A]
100.9	1.3	CCN1C(=O)NC(CC2CCC2)CCCCCOc2nc(cn3ccnc23)-c2cc(ncc2OC)[C@H]1C (single isomer, unassigned) [Example 61B]
99.9	39.2	CCOCC1CCCCCOc2nc(cn3ccnc23)-c2cc(ncc2OC)[C@@H](C)N(CC)C(=O)N1 (single isomer, unassigned) [Example 62A]

hOX2R_Ipone max %act [%]	EC50 [nM]	Structure (SMILES)
100.9	1.4	CCOCC1CCCCCOc2nc(cn3ccnc23)-c2cc(ncc2OC)[C@@H](C)N(CC)C(=O)N1 (single isomer, unassigned) [Example 62B]
98.43	315	CCN1C(=O)NC(C(C)(C)C)CCCCCOc2nc(cn3ccnc23)-c2cc(ncc2OC)[C@H]1C (single isomer, unassigned) [Example 63A]
103.3	5.1	CCN1C(=O)NC(C(C)(C)C)CCCCCOc2nc(cn3ccnc23)-c2cc(ncc2OC)[C@H]1C (single isomer, unassigned) [Example 63B]
102.7	3.5	CCC(CC)CC1CCCCCOc2nc(cn3ccnc23)-c2cc(ncc2OC)[C@@H](C)N(CC)C(=O)N1 (single isomer, unassigned) [Example 64A]
99.8	1.6	CCC(CC)CC1CCCCCOc2nc(cn3ccnc23)-c2cc(ncc2OC)[C@@H](C)N(CC)C(=O)N1 (single isomer, unassigned) [Example 64B]
102.4	13.5	CCN1C(=O)NC(CC2CCCC2)CCCCCOc2nc(cn3ccnc23)-c2cc(ncc2OC)[C@H]1C (single isomer, unassigned) [Example 65A]
101.9	1	CCN1C(=O)NC(CC2CCCC2)CCCCCOc2nc(cn3ccnc23)-c2cc(ncc2OC)[C@H]1C (single isomer, unassigned) [Example 65B]
102.9	9.6	CCN1C(=O)NC(CC2(C(F)(F)F)CC2)CCCCCOc2nc(cn3ccnc23)-c2cc(ncc2OC)[C@H]1C (single isomer, unassigned) [Example 66A]
101.1	0.7	CCN1C(=O)NC(CC2(C(F)(F)F)CC2)CCCCCOc2nc(cn3ccnc23)-c2cc(ncc2OC)[C@H]1C (single isomer, unassigned) [Example 66B]
99.8	9.6	CCN1C(=O)NC(CC2CCOC2)CCCCCOc2nc(cn3ccnc23)-c2cc(ncc2OC)[C@H]1C (single isomer, unassigned) [Example 67A]
101	2.1	CCN1C(=O)NC(CC2CCOC2)CCCCCOc2nc(cn3ccnc23)-c2cc(ncc2OC)[C@H]1C (single isomer, unassigned) [Example 67B]
100.1	38.4	CCN1C(=O)NC(C2CCOCC2)CCCCCOc2nc(cn3ccnc23)-c2cc(ncc2OC)[C@H]1C (single isomer, unassigned) [Example 68A]
101.5	1.5	CCN1C(=O)NC(C2CCOCC2)CCCCCOc2nc(cn3ccnc23)-c2cc(ncc2OC)[C@H]1C (single isomer, unassigned) [Example 68B]
99.7	6.6	CCN1C(=O)NC(CC2CC(F)(F)C2)CCCCCOc2nc(cn3ccnc23)-c2cc(ncc2OC)[C@H]1C (single isomer, unassigned) [Example 69A]
101.1	0.6	CCN1C(=O)NC(CC2CC(F)(F)C2)CCCCCOc2nc(cn3ccnc23)-c2cc(ncc2OC)[C@H]1C (single isomer, unassigned) [Example 69B]
99.1	16.5	CCN1C(=O)NC(CC2(C(F)F)CC2)CCCCCOc2nc(cn3ccnc23)-c2cc(ncc2OC)[C@H]1C (single isomer, unassigned) [Example 70A]
99.8	1.1	CCN1C(=O)NC(CC2(C(F)F)CC2)CCCCCOc2nc(cn3ccnc23)-c2cc(ncc2OC)[C@H]1C (single isomer, unassigned) [Example 70B]
100.5	4.2	CCN1C(=O)NC(CCC(C)(C)F)CCCCCOc2nc(cn3ccnc23)-c2cc(ncc2OC)[C@H]1C (single isomer, unassigned) [Example 71A]
101.6	1.6	CCN1C(=O)NC(CCC(C)(C)F)CCCCCOc2nc(cn3ccnc23)-c2cc(ncc2OC)[C@H]1C (single isomer, unassigned) [Example 71B]
99.5	5.6	CCN1C(=O)NC(CCC(C)F)CCCCCOc2nc(cn3ccnc23)-c2cc(ncc2OC)[C@H]1C (single isomer, unassigned) [Example 72A]
102.7	0.7	CCN1C(=O)NC(CCC(C)F)CCCCCOc2nc(cn3ccnc23)-c2cc(ncc2OC)[C@H]1C (single isomer, unassigned) [Example 72B]
